Test results taken from ChEMBL document CHEMBL2396595, “New eudesmane sesquiterpenes from Alpinia oxyphylla and determination of their inhibitory effects on microglia” (Bioorg Med Chem Lett, 2013).
Active and inactive are the calls of the source. The calls are words filed in the database; no cut-off is given here.

Columns and labels:
[1] = Cytotoxicity against mouse BV2 cells assessed as maximum non-toxic concentration after 24 hrs by MTT assay; type: cell-based, BV-2
BV-2 [2] = test: Neuroprotective activity in mouse BV2 cells assessed as inhibition of LPS-induced nitric oxide production at maximum non-toxic concentration treated 1 hr before LPS addition measured after 24 hrs by colorimetric analysis; type: functional, cell-based
BV-2 [3] = test: Neuroprotective activity in mouse BV2 cells assessed as increase of LPS-induced nitric oxide production at maximum non-toxic concentration treated 1 hr before LPS addition measured after 24 hrs by colorimetric analysis; type: functional, cell-based
BV-2 [4] = test: Neuroprotective activity in mouse BV2 cells assessed as increase of LPS-induced TNFalpha production at maximum non-toxic concentration treated 1 hr before LPS addition measured after 24 hrs by ELISA; type: functional, cell-based
BV-2 [5] = test: Neuroprotective activity in mouse BV2 cells assessed as inhibition of LPS-induced TNFalpha production at maximum non-toxic concentration treated 1 hr before LPS addition measured after 24 hrs by ELISA; type: functional, cell-based

N=C(N)NN [PIMAGEDINE]
MNTC at 24 h [1]: 1000 µM

CC1=CC(=O)C[C@@]2(C)C[C@H]3OC(=O)C(C)=C3C[C@H]12
MNTC at 24 h [1]: 100 µM
inhibition (BV-2 [2]): inactive
Activity (BV-2 [3]): Active

C=C(C)[C@]1(O)CC[C@]2(C)CC(=O)C=C(C)[C@H]2C1
MNTC at 24 h [1]: 0.1 µM
inhibition (BV-2 [2]): inactive
Activity (BV-2 [4]): Active

C[C@@H]1CC(=O)C=C2CC[C@@H]([C@](C)(O)CO)C[C@]21C [(11S)-NOOTKATONE-11,12-DIOL]
MNTC at 24 h [1]: 30 µM
inhibition (BV-2 [2]): inactive

CC1=C2C=C(C(C)(O)CO)CC[C@]2(C)CCC1=O (stereo not given in full) [OXYPHYLLANENE F]
MNTC at 24 h [1]: 0.1 µM
inhibition (BV-2 [2]): inactive

COc1ccc2c(c1)c(CC(=O)O)c(C)n2C(=O)c1ccc(Cl)cc1 [INDOMETHACIN]
MNTC at 24 h [1]: 10 µM

CC(=O)C1=CC2=C(C)C(=O)CC[C@@]2(C)CC1
MNTC at 24 h [1]: 100 µM
inhibition (BV-2 [2]): inactive
Activity (BV-2 [3]): Active

C=C(C)[C@@H]1CCC2=C[C@@H](O)C[C@@H](C)[C@]2(C)C1 [BETA-NOOTKATOL]
MNTC at 24 h [1]: 30 µM
inhibition (BV-2 [2]): Active

Cc1ccc2c(c1O)[C@H](C(C)C)CCC2=O
MNTC at 24 h [1]: 100 µM
inhibition (BV-2 [2]): Active

CC(C)[C@H]1CCC(=O)C2=C1[C@H](O)[C@](C)(O)CC2 [OXYPHYLLENODIOL B]
MNTC at 24 h [1]: 1 µM
inhibition (BV-2 [2]): Active

C=C(C)[C@@H]1CCC2=CC(=O)C[C@@H](C)[C@]2(C)C1 [NOOTKATONE]
MNTC at 24 h [1]: 0.1 µM
inhibition (BV-2 [2]): inactive
Activity (BV-2 [4]): Active

C[C@@]12CCC(=O)C=C1[C@](C)(O)[C@H](O)CC2 [OXYPHYLLENONE B]
MNTC at 24 h [1]: 10 µM
inhibition (BV-2 [2]): inactive

CC(C)[C@@H]1CCC(=O)C2=C1[C@H](O)[C@](C)(O)CC2 [OXYPHYLLENODIOL A]
MNTC at 24 h [1]: 100 µM
inhibition (BV-2 [2]): inactive

CC(=O)[C@H]1CC[C@@]2(C)CC(=O)C=C(C)[C@@]2(O)C1
MNTC at 24 h [1]: 100 µM
inhibition (BV-2 [2]): inactive
Activity (BV-2 [3]): Active

C=C(C)[C@@H]1CC(=O)C2=CC(=O)C[C@@H](C)[C@]2(C)C1
MNTC at 24 h [1]: 0.1 µM
inhibition (BV-2 [2]): Active
Activity (BV-2 [4]): Active

C[C@@]12CCC(=O)C=C1[C@@](C)(O)[C@H](O)CC2 [OXYPHYLLENONE A]
MNTC at 24 h [1]: 100 µM
inhibition (BV-2 [5]): Active
inhibition (BV-2 [2]): inactive

Cc1ccc2c(c1)[C@H](C(C)C)CCC2=O [(4S)-10-NOR-CALAMENEN-10-ONE]
MNTC at 24 h [1]: 0.1 µM
inhibition (BV-2 [2]): inactive
Activity (BV-2 [3]): Active
